Test system: Cysteine-containing peptide for DPRA
Assay: Skin sensitization test in accordance with DPRA (direct peptide reactivity assay)
Settings: relative to peptide decrease percentage of Comparative Example 1 regarded as 100; 50 μL 1,3-butylene glycol with 0.667 mM peptide solution; HPLC after 72±2 hours; average of three measurements
From the text: The product 1,3-butylene glycol in the present embodiment has reduced skin sensitization. Here, skin sensitization refers to causing an allergic reaction after skin contact. For the evaluation of skin sensitization, it had been normal to use experimental animals, but a direct peptide reactivity assay (DPRA), which is an in chemico test, was adopted as an alternative test in OECD guideline TG442C in 2015 from the viewpoint of animal welfare, and in the present embodiment as well, skin sensitization is evaluated by a test in accordance with DPRA. In more detail, skin sensitization is evaluated according to a method described in experimental examples to be described below.
Regarding 1,3-butylene glycol obtained in Examples 1 and 2 and Comparative Examples 1 and 2, skin sensitization was evaluated according to the following method.
15 mg of Cysteine-containing peptide for DPRA manufactured by Scrum Inc. and 30 mL of a 0.05 M phosphate buffer were mixed together to prepare a 0.05 M phosphate buffer solution containing 0.667 mM of the peptide (hereinafter, peptide solution). After one hour elapsed from the preparation of the peptide solution, 750 μL of the peptide solution and 250 μL of acetonitrile were put into each of three brown sample bottles for HPLC to prepare three reference solutions. After two hours elapsed from the preparation of the reference solutions, 750 μL of the peptide solution, 200 μL of acetonitrile and 50 μL of 1,3-butylene glycol were put into a different brown sample bottle for HPLC to prepare a sample solution (sample solution 1). Furthermore, sample solutions were prepared by the same operation after four hours and six hours elapsed from the preparation of the sample solution, respectively (sample solution 2 and sample solution 3). Regarding each of the three reference solutions and the sample solutions (sample solution 1, sample solution 2 and sample solution 3), measurement by HPLC analysis was performed after 72±2 hours elapsed from the preparation of each solution, and the average values of three measurements were calculated for the peak height of the peptide in the reference solutions and the sample solutions, respectively. The peptide decrease percentage was calculated using the following formula (1) from the calculated average values of three measurements.
Peptide decrease percentage (%)=(average value of three measurements for peak height of peptide in sample solutions/average value of three measurements for peak height of peptide in reference solutions)×100 (1)
In addition, regarding the present test, samples of the product 1,3-butylene glycol to be compared were tested on the same day from the viewpoint of the reproducibility. […]

## CC(O)CCO (stereo not shown) [Comparative Example 1, 1,3-butylene glycol]
  Relative value of peptide decrease percentage: 100

## CC(O)CCO (stereo not shown) [Comparative Example 2, 1,3-butylene glycol]
  Relative value of peptide decrease percentage: 121

## CC(O)CCO (stereo not shown) [Example 1, 1,3-butylene glycol]
  Relative value of peptide decrease percentage: 73

## CC(O)CCO (stereo not shown) [Example 2, 1,3-butylene glycol]
  Relative value of peptide decrease percentage: 85
